Reference: US8710224B2, “Heterocyclic compounds as CCR2B antagonists” (AstraZeneca AB, priority 2004, dated 2014)

The molecules below were run against T1, recombinant human CCR5 receptor (Homo sapiens, UniProt P51681) (assay: Radioligand binding assay for inhibition of the binding of MIP-1α). Conditions: displacement of 0.1 nM iodinated MIP-1α; membranes of Chinese hamster ovary cells expressing CCR5.
T1 construct: expressed in transfected cells; host or cells: Chinese hamster ovary (CHO) cells; membranes
Protocol: Biological Assay for the Ability of Compounds to Inhibit the Binding of MIP-1α This ability is assessed using an in vitro radioligand binding assay. Membranes are prepared from Chinese hamster ovary cells which express the recombinant human CCR5 receptor. These membranes are incubated with 0.1 nM iodinated MIP-1α, scintillation proximity beads and various concentrations of the compounds of the invention in 96-well plates. The amount of iodinated MIP-1α bound to the receptor is then determined by scintillation counting.

T1 sequence (P51681 whole entry): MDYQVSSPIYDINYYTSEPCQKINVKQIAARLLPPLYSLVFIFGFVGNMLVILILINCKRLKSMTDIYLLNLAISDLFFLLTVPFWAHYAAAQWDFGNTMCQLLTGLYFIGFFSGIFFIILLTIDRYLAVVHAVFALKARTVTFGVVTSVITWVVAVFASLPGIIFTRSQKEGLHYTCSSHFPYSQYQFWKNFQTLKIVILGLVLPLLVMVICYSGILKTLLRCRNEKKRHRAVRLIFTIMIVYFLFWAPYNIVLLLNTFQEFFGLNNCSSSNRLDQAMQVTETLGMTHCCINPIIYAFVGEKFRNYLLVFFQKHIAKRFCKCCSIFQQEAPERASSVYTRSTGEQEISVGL

IC50	Compound
< 10 µM	Cc1cccnc1CN1CCC[C@@H](CN2CCN(C(=O)Nc3ccc(Cl)c(Cl)c3)CC2)C1 [Example 44, N-(3,4-dichlorophenyl)-4-({(3S)-1-[(3-methylpyridin-2-yl)methyl]piperidin-3-yl}methyl)piperazine-1-carboxamide]
< 10 µM	COc1ccc(CN2CCC[C@@H](CN3CCN(C(=O)Nc4ccc(Cl)c(Cl)c4)CC3)C2)cc1 [Example 47, N-(3,4-dichlorophenyl)-4-{[(3R)-1-(4-methoxybenzyl)piperidin-3-yl]methyl}piperazine-1-carboxamide]
< 10 µM	N#C/N=C(\Nc1ccc(Cl)c(Cl)c1)N1CCN(C[C@@H]2CCCN(CCc3ccccc3)C2)CC1 [Example 79, N-cyano-N-(3,4-dichlorophenyl)-4-{[(3R)-1-(2-phenylethyl)piperidin-3-yl]methyl}piperazine-1-carboximidamide]
< 10 µM	CC(C)N1CCC[C@@H](CN2CCN(C(=O)Nc3ccc(Cl)c(Cl)c3)CC2)C1 [Example 84, N-(3,4-dichlorophenyl)-4-{[(3S)-1-isopropylpiperidin-3-yl]methyl}piperazine-1-carboxamide]
< 10 µM	O=C(Nc1ccc(Cl)c(Cl)c1)N1CCN(C(=O)[C@@H]2CCCN(CCc3ccccc3)C2)CC1 [Example 89, N-(3,4-dichlorophenyl)-4-{[(3R)-1-(2-phenylethyl)piperidin-3-yl]carbonyl}piperazine-1-carboxamide]
< 10 µM	CCN1CCC[C@@H](C(=O)N2CCN(C(=O)Nc3ccc(Cl)c(Cl)c3)CC2)C1 [Example 90, N-(3,4-dichlorophenyl)-4-{[(3R)-1-ethylpiperidin-3-yl]carbonyl}piperazine-1-carboxamide]
< 10 µM	CCN1CCC[C@@H](CN2CCN(C(=O)Nc3ccc(Cl)c(Cl)c3)CC2=O)C1 [Example 91, N-(3,4-dichlorophenyl)-4-{[(3R)-1-ethylpiperidin-3-yl]methyl}-3-oxopiperazine-1-carboxamide]
< 10 µM	O=C(Nc1ccc(C(F)(F)F)c(Cl)c1)N1CCN(C[C@@H]2CCCN(C3CC3)C2)CC1 [Example 106, N-[3-chloro-4-(trifluoromethyl)phenyl]-4-{[(3S)-1-cyclopropylpiperidin-3-yl]methyl}piperazine-1-carboxamide]
< 10 µM	O=C(Nc1ccc(F)c(Cl)c1)N1CCN(C[C@@H]2CCCN(C3CC3)C2)CC1 [Example 107, N-(3-chloro-4-fluorophenyl)-4-{[(3S)-1-cyclopropylpiperidin-3-yl]methyl}piperazine-1-carboxamide]
< 10 µM	O=C(Nc1ccc(Br)cc1)N1CCN(C[C@@H]2CCCN(C3CC3)C2)CC1 [Example 108, N-(4-bromophenyl)-4-{[(3S)-1-cyclopropylpiperidin-3-yl]methyl}piperazine-1-carboxamide]
< 10 µM	O=C(Nc1cccc(C(F)(F)F)c1)N1CCN(C[C@@H]2CCCN(C3CC3)C2)CC1 [Example 109, 4-{[(3S)-1-cyclopropylpiperidin-3-yl]methyl}-N-[3-(trifluoromethyl)phenyl]piperazine-1-carboxamide]
< 10 µM	Cc1ccc(NC(=O)N2CCN(C[C@@H]3CCCN(C4CC4)C3)CC2)cc1Cl [Example 110, N-(3-chloro-4-methylphenyl)-4-{[(3S)-1-cyclopropylpiperidin-3-yl]methyl}piperazine-1-carboxamide]
< 10 µM	O=C(Nc1ccc(C(F)(F)F)cc1)N1CCN(C[C@@H]2CCCN(C3CC3)C2)CC1 [Example 111, 4-{[(3S)-1-cyclopropylpiperidin-3-yl]methyl}-N-[4-(trifluoromethyl)phenyl]piperazine-1-carboxamide]
< 10 µM	CC(C)(C)c1cc(NC(=O)N2CCN(C[C@@H]3CCCN(C4CC4)C3)CC2)no1 [Example 112, N-(5-tert-butylisoxazol-3-yl)-4-{[(3S)-1-cyclopropylpiperidin-3-yl]methyl}piperazine-1-carboxamide]
< 10 µM	COCCN1CCC[C@@H](CN2CCN(C(=O)Nc3ccc(Cl)c(Cl)c3)CC2)C1 [Example 113, N-(3,4-dichlorophenyl)-4-{[(3S)-1-(2-methoxyethyl)piperidin-3-yl]methyl}piperazine-1-carboxamide]
< 10 µM	O=C(Nc1ccc(Cl)c(Cl)c1)N1CCN(C[C@H]2CN(C3CCC3)CCO2)CC1 [Example 115, 4-{[(2S)-4-cyclobutylmorpholin-2-yl]methyl}-N-(3,4-dichlorophenyl)piperazine-1-carboxamide]
< 10 µM	O=C(Nc1ccc(Cl)c(Cl)c1)N1CCN(C[C@H]2CN(C3CCCC3)CCO2)CC1 [Example 118, 4-{[(2S)-4-cyclopentylmorpholin-2-yl]methyl}-N-(3,4-dichlorophenyl)piperazine-1-carboxamide]

IC50	Compound
< 10 µM	CC(C)N1CCO[C@@H](CN2CCN(C(=O)Nc3ccc(Cl)c(Cl)c3)CC2)C1 [Example 119, N-(3,4-dichlorophenyl)-4-{[(2S)-4-isopropylmorpholin-2-yl]methyl}piperazine-1-carboxamide]
< 10 µM	CC(=O)N1CCC(N2CCO[C@@H](CN3CCN(C(=O)Nc4ccc(Cl)c(Cl)c4)CC3)C2)CC1 [Example 120, 4-{[(2S)-4-(1-acetylpiperidin-4-yl)morpholin-2-yl]methyl}-N-(3,4-dichlorophenyl)piperazine-1-carboxamide]
< 10 µM	O=C(Nc1ccc(Cl)c(Cl)c1)N1CCN(C[C@H]2CN(C3CCOCC3)CCO2)CC1 [Example 121, N-(3,4-dichlorophenyl)-4-{[(2S)-4-(tetrahydro-2H-pyran-4-yl)morpholin-2-yl]methyl}piperazine-1-carboxamide]
< 10 µM	O=C(Nc1ccc(Cl)c(Cl)c1)N1CCN(C[C@H]2CN(C3CCC(O)CC3)CCO2)CC1 (stereo partly drawn) [Example 122, N-(3,4-dichlorophenyl)-4-{[(2S)-4-(4-hydroxycyclohexyl)morpholin-2-yl]methyl}piperazine-1-carboxamide]
< 10 µM	CCN1CCN[C@@H](C(=O)N2CCN(C(=O)Nc3ccc(Cl)cc3)CC2)C1 [Example 131, N-(4-Chlorophenyl)-4-{[(2R)-4-ethylpiperazin-2-yl]carbonyl}piperazine-1-carboxamide]
< 10 µM	CCN1CCN[C@@H](C(=O)N2CCN(C(=O)Nc3cccc(Cl)c3)CC2)C1 [Example 132, N-(3-Chlorophenyl)-4-{[(2R)-4-ethylpiperazin-2-yl]carbonyl}piperazine-1-carboxamide]
< 10 µM	CCN1CCN[C@@H](C(=O)N2CCN(C(=O)Nc3ccc(Cl)c(Cl)c3)CC2)C1 [Example 133, N-(3,4-Dichlorophenyl)-4-{[(2R)-4-ethylpiperazin-2-yl]carbonyl}piperazine-1-carboxamide]
< 10 µM	CC(C)N1CCN[C@@H](C(=O)N2CCN(C(=O)Nc3ccc(Cl)c(Cl)c3)CC2)C1 [Example 134, N-(3,4-dichlorophenyl)-4-{[(2R)-4-isopropylpiperazin-2-yl]carbonyl}piperazine-1-carboxamide]
< 10 µM	O=C(Nc1ccc(Cl)c(Cl)c1)N1CCN(C(=O)[C@H]2CN(C3CC3)CCN2)CC1 [Example 135, 4-[(2R)(4-Cyclopropylpiperazin-2-yl)carbonyl]-N-(3,4-dichlorophenyl)piperazine-1-carboxamide]
< 10 µM	O=C(Nc1ccc(Cl)c(Cl)c1)N1CCN(C(=O)[C@H]2CN(CCc3ccccc3)CCN2)CC1 [Example 138, N-(3,4-Dichlorophenyl)-4-{[(2R)-4-(2-phenylethyl)piperazin-2-yl]carbonyl}piperazine-1-carboxamide]
< 10 µM	O=C(Nc1ccc(Cl)c(Cl)c1)N1CCN(C[C@@H]2CCCN(C3CCC(O)CC3)C2)CC1 (stereo partly drawn) [Example 145, N-(3,4-dichlorophenyl)-4-{[(3S)-1-(4-hydroxycyclohexyl)piperidin-3-yl]methyl}piperazine-1-carboxamide]
< 10 µM	O=C(Nc1ccc(Cl)c(Cl)c1)N1CCN(C(=O)C2CCN([C@H]3CC[C@](O)(c4ccccn4)CC3)C2)CC1 (stereo partly shown) [Example 146, N-(3,4-dichlorophenyl)-4-{[1-(4-hydroxy-4-pyridin-2-ylcyclohexyl)pyrrolidin-3-yl]carbonyl}piperazine-1-carboxamide]
< 10 µM	O=C(Nc1ccc(Cl)c(Cl)c1)N1CCN(C(=O)C2CCN([C@H]3CC[C@](O)(c4ccncc4)CC3)C2)CC1 (stereo partly drawn) [Example 147, N-(3,4-dichlorophenyl)-4-{[1-(cis-4-hydroxy-4-pyridin-4-ylcyclohexyl)pyrrolidin-3-yl]carbonyl}piperazine-1-carboxamide]
< 10 µM	O=C(Nc1ccc(Cl)c(Cl)c1)N1CCN(C(=O)C2CCN(C3CCC(O)(c4nccs4)CC3)C2)CC1 (stereo not drawn) [Example 148, N-(3,4-dichlorophenyl)-4-({1-[cis-4-hydroxy-4-(1,3-thiazol-2-yl)cyclohexyl]pyrrolidin-3-yl}carbonyl)piperazine-1-carboxamide]
< 10 µM	O=C(Nc1ccc(Cl)c(Cl)c1)N1CCN(CC2CCN([C@H]3CC[C@](O)(c4ccncc4)CC3)C2)CC1 (stereo partly shown) [Example 150, N-(3,4-dichlorophenyl)-4-{[1-(4-hydroxy-4-pyridin-4-ylcyclohexyl)pyrrolidin-3-yl]methyl}piperazine-1-carboxamide]
< 10 µM	O=C(Nc1ccc(Cl)c(Cl)c1)N1CCN(C[C@@H]2CCCN(CC(c3ccccc3)c3ccccc3)C2)CC1 [Example 153, N-(3,4-Dichlorophenyl)-4-{[(3R)-1-(2,2-diphenylethyl)piperidin-3-yl]methyl}piperazine-1-carboxamide]
< 10 µM	O=C(Nc1ccc(Cl)c(Cl)c1)N1CCN(C[C@@H]2CCCN(CCc3ccc(Cl)cc3)C2)CC1 [Example 154, 4-({(3R)-1-[2-(4-Chlorophenyl)ethyl]piperidin-3-yl}methyl)-N-(3,4-dichlorophenyl)piperazine-1-carboxamide]
